In ChEMBL document CHEMBL4229405, “Design, synthesis and biological evaluation of piperazino-enaminones as novel suppressants of pro-Inflammatory cytokines” (Bioorg Med Chem, 2018):
Activity calls are given as the source filed them. No cut-off for these calls is given here.

Tests used:
J774.2 [1] = assay: Antiinflammatory activity against mouse J774.2 cells assessed as inhibition of LPS-induced IL-6 release at 0.5 mM after 24 hrs by ELISA relative to control; format: functional; settings: for inhibition at 500 µM: J774.2, 24 h
J774.2 [2] = assay: Antiinflammatory activity against mouse J774.2 cells assessed as inhibition of LPS-induced TNFalpha release at 1 mM after 24 hrs by ELISA relative to control; format: functional; settings: J774.2, 24 h
J774.2 [3] = assay: Antiinflammatory activity against mouse J774.2 cells assessed as inhibition of LPS-induced IL-6 release at 0.25 mM after 24 hrs by ELISA relative to control; format: functional; settings: J774.2, 24 h
J774.2 [4] = assay: Antiinflammatory activity against mouse J774.2 cells assessed as inhibition of LPS-induced TNFalpha release at 0.25 mM after 24 hrs by ELISA relative to control; format: functional; settings: J774.2, 24 h
[5] = Lipophilicity, log P of the compound; format: physicochemical; settings: octanol/water
J774.2 [6] = assay: Antiinflammatory activity against mouse J774.2 cells assessed as inhibition of LPS-induced TNFalpha release after 24 hrs by ELISA; format: functional, cell-based
J774.2 [7] = assay: Antiinflammatory activity against mouse J774.2 cells assessed as inhibition of LPS-induced IL-6 release at 1 mM after 24 hrs by ELISA relative to control; format: functional; settings: for inhibition at 1000 µM: J774.2, 24 h
J774.2 [8] = assay: Antiinflammatory activity against mouse J774.2 cells assessed as inhibition of LPS-induced TNFalpha release at > 0.5 mM after 24 hrs by ELISA; format: functional, cell-based
J774.2 [9] = assay: Antiinflammatory activity against mouse J774.2 cells assessed as inhibition of LPS-induced TNFalpha release at 0.25 to 1 mM after 24 hrs by ELISA; format: functional, cell-based

Row | SMILES | logP [5] | inhibition at 1000 µM (J774.2 [2]) [%] | inhibition at 250 µM (J774.2 [3]) [%] | inhibition at 250 µM (J774.2 [4]) [%] | further results
1 | C[C@@H]1C[C@H]2[C@@H]3CCC4=CC(=O)C=C[C@]4(C)[C@@]3(F)[C@@H](O)C[C@]2(C)[C@@]1(O)C(=O)CO [DEXAMETHASONE] | – | 62 | – | – | inhibition at 500 µM (J774.2 [1]): 40%
2 | COC(=O)C1C(=O)C=C(Nc2cccc(N3CCN(C)CC3)c2)CC1c1ccccc1 (stereo unspecified) | 3.99 | – | 72 | 53 | inhibition (J774.2 [6]): Dose-dependent effect
3 | CCOC(=O)C1C(=O)C=C(Nc2ccc(Cl)cc2)CC1C (stereo unspecified) | – | 70 | 20 | – | inhibition at 1000 µM (J774.2 [7]): 96%
4 | CCOC(=O)C1C(=O)C=C(Nc2ccc(N3CCN(C)CC3)cc2)CC1C (stereo unspecified) | 3.07 | – | – | – | –
5 | COC(=O)C1C(=O)C=C(Nc2cccc(N3CCN(C)CC3)c2)CC1C (stereo unspecified) | 2.67 | – | – | 40 | –
6 | COC(=O)C1C(=O)C=C(Nc2ccccc2N2CCN(C)CC2)CC1C (stereo unspecified) | 2.65 | 47 | – | – | inhibition at 1000 µM (J774.2 [7]): 68%
7 | COC(=O)C1C(=O)C=C(Nc2ccccc2N2CCN(C)CC2)CC1c1ccccc1 (stereo unspecified) | 3.97 | – | – | – | –
8 | CCOC(=O)C1C(=O)C=C(Nc2ccccc2N2CCN(C)CC2)CC1C (stereo unspecified) | 3.02 | 53 | – | – | inhibition at 1000 µM (J774.2 [7]): 72%
9 | COC(=O)C1C(=O)C=C(Nc2ccc(N3CCN(C)CC3)cc2)CC1C (stereo unspecified) | 2.7 | – | 53 | – | inhibition (J774.2 [9]): inactive
10 | CCN1CCN(c2ccc(NC3=CC(=O)C(C(=O)OC)C(C)C3)cc2)CC1 (stereo unspecified) | 3.07 | – | – | – | –
11 | CCOC(=O)C1C(=O)C=C(Nc2cccc(N3CCN(C)CC3)c2)CC1C (stereo unspecified) | 3.05 | – | – | – | –

Now from value to compound, other results behind:

Row | logP [5] | SMILES | inhibition at 1000 µM (J774.2 [2]) [%] | inhibition at 250 µM (J774.2 [3]) [%] | inhibition at 250 µM (J774.2 [4]) [%] | further results
12 | 4.39 | CCN1CCN(c2ccc(NC3=CC(=O)C(C(=O)OC)C(c4ccccc4)C3)cc2)CC1 (stereo unspecified) | – | 86 | 65 | inhibition (J774.2 [6]): Dose-dependent effect
13 | 4.35 | CCOC(=O)C1C(=O)C=C(Nc2ccccc2N2CCN(C)CC2)CC1c1ccccc1 (stereo unspecified) | – | – | – | –
14 | 4.02 | COC(=O)C1C(=O)C=C(Nc2ccc(N3CCN(C)CC3)cc2)CC1c1ccccc1 (stereo unspecified) | 80 to 82 | 9 to 70 | 30 | inhibition at 500 µM (J774.2 [1]): 98%
15 | 4.37 | CCOC(=O)C1C(=O)C=C(Nc2cccc(N3CCN(C)CC3)c2)CC1c1ccccc1 (stereo unspecified) | – | 35 | – | inhibition (J774.2 [8]): Active
16 | 4.77 | CCOC(=O)C1C(=O)C=C(Nc2ccc(N3CCN(CC)CC3)cc2)CC1c1ccccc1 (stereo unspecified) | – | 62 | 62 | inhibition (J774.2 [7]): inactive; inhibition (J774.2 [1]): inactive
17 | 3.45 | CCOC(=O)C1C(=O)C=C(Nc2ccc(N3CCN(CC)CC3)cc2)CC1C (stereo unspecified) | – | 25 | – | inhibition (J774.2 [8]): Active
18 | 4.39 | CCOC(=O)C1C(=O)C=C(Nc2ccc(N3CCN(C)CC3)cc2)CC1c1ccccc1 (stereo unspecified) | 100 | 64 to 98 | 52 | inhibition (J774.2 [7]): inactive; inhibition at 500 µM (J774.2 [1]): 100%
